Measurements reported in US20090203775A1, “Novel compound and a novel microorganism for producing the novel compound” (Haiyi Biotech Pte, Ltd., priority 2005, published 2009).
≈ marks a conversion by molar mass, not a printed value. Like-named read-outs stand apart in the source and are kept apart here.

How the values were obtained:
[1] = tested on: L1210 (mouse leukemia cells); experiment: MTT assay, percentage of killing, L1210; type: cell-based; conditions: 24~48 hours
Protocol: (§1) 1. Method: 3-[4,5-dimethyl(thiazol-2-yl)-3,5-diphery] tetradium bromide (MTT) assay. 2. Culture medium: RPMI-1640 medium containing 2% calf serum 3. Apparatus: (1) CO2 incubator, Sherton USA; (2) 318MC Enzyme analysis machine, SANCO Equipments Company Ltd. 4. Conditions of the culture: Temp. 37° C.; Concentration of CO2: 4.7%, culture duration: 24˜48 hours.

[2] = tested on: Eca-109 (esophageal cancer cells); experiment: MTT assay, percentage of killing, Eca-109; type: cell-based; conditions: for percentage of killing: MTT, 24~48 hours
Protocol: as §1

[3] = tested on: B16 (mouse melanocytoma cells); experiment: MTT assay, percentage of killing, B16; type: cell-based; conditions: 24~48 hours
Protocol: as §1

[4] = tested on: A2780 (human ovary cancer cells); experiment: MTT assay, percentage of killing, A2780; type: cell-based; conditions: 24~48 hours
Protocol: as §1

[5] = tested on: MGC (human stomach cancer cells); experiment: MTT assay, percentage of killing, MGC; type: cell-based; conditions: 24~48 hours
Protocol: as §1

[6] = tested on: human stomach cancer cells MGC-803; experiment: Nude mouse transplanted with human stomach cancer MGC-803, tumor growth inhibition; type: in vivo, BALB/cA nude mice
Protocol: Aim: To observe the growth inhibitory effect and the intensity of the effect of the compound of formula (I) in nude mouse transplanted with human stomach cancer cells MGC803.
Material: The lyophilized injection powder of the compound of formula (I), 15 mg/vial, diluted to the needed concentration by 0.9% saline before use.
Dosages: the dosages of the compound of formula (I) are 15, 10 and 5 mg/kg.
Animals: BALB/cA nude mice, female, 40˜45-days old, body weight is 18±2 g. The number of the animals in per group: negative control: 12; group with drug: 6.
Transplanted tumor: Human stomach cancer MGC-803 cells were transplanted into the nude mice as follows. Approximately half a million […] of the MGC-803 cells was injected subcutaneously (s.c.) into the mice. The tumors were used after breeding the mice for three generations.
Methods: Tumors in peak growth were cut into the sizes of around 1.5 mm^3. Under aseptic conditions the tumours were injected subcutaneously to the right axilla of the mouse. The size of the transplanted tumor is then measure and the animals randomly divided into several groups when the size of the tumor reaches 100-200 mm^3. The drug is administered by intravenous (i.v.) injection on the 1st and 6th days. Saline is administered as control. The size of the tumor is examined every two weeks together with the weight of the mouse. The tumor volume(TV) is calculated as:
Where, a and b represent length and width, respectively. The relative tumor volume (RTV) is calculated as: RTV=Vt/V0, where V0 is the volume of the tumor before administering the compound, Vt is the volume of the tumor after administering the compound. The index for evaluating the activity of anticancer is the relative growth rate of tumor (T/C), which is calculated as: […]
wherein, TRTV is the administering group; CRTV is the control group.
The standard for evaluating the treatment effect: T/C (%)>60% means no effect, T/C<=60% and p<0.05 means having a significant effect.

[7] = tested on: L1210, a kind of lymph leukemia cell; experiment: Ex vivo treatment of L1210 cells, then i.p. injection into mice; type: in vivo, BDF-1 mice
Protocol: Control: 6 BDF-1 mice, male, administer to each mouse 1×10^8 L1210, a kind of lymph leukemia cell, by intraperitoneal (i.p.) injection, (without the compound of formula (I) treatment); results are shown in FIG. 11.
Ex vivo test group: 6 BDF-1 mice, male, administer to each mouse 1×10^8 L1210 cells by i.p. injection, wherein the L1210 were treated with the compound of formula (I). The method of treating cells ex vivo: The concentration of the lyophilized powder injection of the compound of formula (I) is 7.5 mg/ml. It was diluted to 150 ug/ml with saline solution. A volume of 67 ul of the diluted injection solution is mixed with 1.5 ml L1210 cells and 0.433 ml saline to obtain in each […] of L1210 cells to contain 5 ug the compound. The mixture is placed at the room temperature for two hours.

[8] = tested on: L1210 (mouse lymph leukemia cells); experiment: Survival of mice transplanted with L1210; type: in vivo, BDF-1 mice; conditions: d 1, d 6, s.c.; for duration of survival (Ave): control 15
Protocol: Aims: To observe the effect of prolonging the survival of the compound of formula (I) on mice transplanted with L1210, a kind of mouse lymph leukemia cells.
Methods: 18 BDF-1 mice, male. L1210 (mouse lymph leukemia cells) were administered by i.p. injection, at the dose of 1×10^5 per mouse. Mice were divided into three groups randomly, with six animals per group. The test group was administered with the drug on day 1 and day 6 by subcutaneous (s.c.) injection. An equal volume of saline was administered in control animals.
Dosage: Test group 1: 50 mg/kg the lyophilized powder injection of the compound of formula (I) was administered by s.c. injection, • Test group 2: 25 mg/kg the lyophilized powder injection of the compound of formula (I) was administered by s.c. injection, • Test group 3: 12.5 mg/kg the lyophilized powder injection of the compound of formula (I) was administered by s.c. injection.

Coxsakie B3 virus = experiment: in vitro; type: cell-based; conditions: for IC50: read-out: IC50 (half inhibitory concentration for the virus)
Protocol: Treatment of the sample: The sample was first dissolved in DMSO to appropriate concentration. The sample solutions were then diluted the samples in culture medium solution to obtain eight concentrations.
(§2) Methods: The Veo cells were cultured in 96-well plates. The cells were infected with Coxsakie B3 virus for 2 hours after 24 hours of incubation. The solution containing the virus was then discarded. The samples were then added into the wells at the concentrations with the appropriate controls. The cell pathological extent (CPE) was observed 36 hours later. The half inhibitory concentration (IC50) was calculated by using the method of Reed-Muench.
(§3) (1) “-” means that the sample has no anti Coxsakie B3 virus effect at the maximal dose with no toxicity. (2) TC50 indicates the half toxic concentration; IC50 indicates the half inhibitory concentration for the virus; SI indicates the selective index, calculated as the follow: SI=TC50/IC50

Veo cells = experiment: Half toxic concentration in the antiviral test cells; type: cell-based
Protocol: as §2, §3

T. rubrum = experiment: Germicidal effect, MTT assay, T. rubrum; type: cell-based
Protocol: (§4) Aims: To observe the germicidal effect of the compound of formula (I) on T. rubrum, T. mentagrophytes, C. albicans and B. subtilis. Method: […] Concentration of the samples were: (1) 2 mg/ml; (2) 1 mg/ml; (3) 0.5 mg/ml; (4) 0.25 mg/ml; Volume of the sample: 50 ul/well.

T. mentagrophytes = experiment: Germicidal effect, MTT assay, T. mentagrophytes; type: cell-based
Protocol: as §4

C. albicans = experiment: Germicidal effect, MTT assay, C. albicans; type: cell-based
Protocol: as §4

B. subtilis = experiment: Germicidal effect, MTT assay, B. subtilis; type: cell-based
Protocol: as §4

[9] = tested on: T. rubrum, T. mentagrophytes, C. albicans and B. subtilis; experiment: Germicidal effect, MTT assay, summary statement for all strains; type: cell-based; conditions: ≧50 μg/well; summary for the strains of Table 8
Protocol: as §4

O=C1CC[C@H](c2ccc(O)c3c2C(=O)C2OC2[C@H]3O)c2cccc(O)c21 (stereo partly shown) [compound of formula (I)]
percentage of killing ([1]; L1210, 312.5 ng/ml): 0% | percentage of killing ([1]; L1210, 625 ng/ml): 0% | percentage of killing ([1]; L1210, 1.25 ug/ml): 17.02% | percentage of killing ([1]; L1210, 2.5 ug/ml): 94.18% | percentage of killing ([1]; L1210, 5 ug/ml): 97.00% | percentage of killing ([2]; Eca-109, 312.5 ng/ml): 0% | percentage of killing ([2]; Eca-109, 625 ng/ml): 0% | percentage of killing ([2]; Eca-109, 1.25 ug/ml): 0% | percentage of killing ([2]; Eca-109, 2.5 ug/ml): 0% | percentage of killing ([2]; Eca-109, 5 ug/ml): 0.18% | effect on Eca-109 (in words) ([2]; Eca-109, MTT): no effect | percentage of killing ([3]; B16, 312.5 ng/ml): 1.06% | percentage of killing ([3]; B16, 625 ng/ml): 6.37% | percentage of killing ([3]; B16, 1.25 ug/ml): 0% | percentage of killing ([3]; B16, 2.5 ug/ml): 51.75% | percentage of killing ([3]; B16, 5 ug/ml): 72.53% | percentage of killing ([4]; A2780, 312.5 ng/ml): 0% | percentage of killing ([4]; A2780, 625 ng/ml): 35.31% | percentage of killing ([4]; A2780, 1.25 ug/ml): 46.5% | percentage of killing ([4]; A2780, 2.5 ug/ml): 73.08% | percentage of killing ([4]; A2780, 5 ug/ml): 90.91% | percentage of killing ([5]; 312.5 ng/ml): 0% | percentage of killing ([5]; 625 ng/ml): 40.98% | percentage of killing ([5]; 1.25 ug/ml): 42.32% | percentage of killing ([5]; 2.5 ug/ml): 64.37% | percentage of killing ([5]; 5 ug/ml): 85.52% | growth inhibitory effect (in words) ([6]; 15 mg/kg on day 1 and day 6, i.v., T/C<=60% and p<0.05 means significant effect): significant growth inhibitory effect | weight(g) final ([6]; 15 mg/kg, d 1, d 6, i.v., lyophilized powder, body weight of mice, final): 17.2 g | weight(g) Initial ([6]; 15 mg/kg, d 1, d 6, i.v., lyophilized powder, body weight of mice, initial): 18.3 g | T/C (%) ([6]; 15 mg/kg, d 1, d 6, i.v., relative growth rate of tumor, TRTV/CRTV x 100): 0.18% | RTV ([6]; 15 mg/kg, d 1, d 6, i.v., relative tumor volume Vt/V0): 0.02 ± 4.3 | complete disappearance of tumor ([6]; 15 mg/kg, d 1, d 6, i.v., three weeks after the treatment, 6 mice): the tumor in one mouse disappeared completely | TV(mm^3) d 0 ([6]; 15 mg/kg, d 1, d 6, i.v., tumor volume before treatment): 102 ± 22 mm^3 | TV(mm^3) d 21 ([6]; 15 mg/kg, d 1, d 6, i.v., tumor volume d 21): 2.2 ± 0.04 mm^3 | duration of survival ([7]; 6 BDF-1 mice given 1×10^8 L1210 cells i.p., cells treated ex vivo with 5 ug compound, two hours, room temperature, controls died at 12-15 days): after 60 days | others (symptoms) ([7]; 6 BDF-1 mice given compound-treated L1210 cells i.p.): no symptom | killing of L1210 ex vivo (in words) ([7]; L1210 treated ex vivo with 5 ug compound, two hours, room temperature): killed completely | prolonging days ([8]; 12.5 mg/kg): 5 days | rate of prolonging (%) ([8]; 12.5 mg/kg): 33% | duration of survival (Ave) ([8]; 12.5 mg/kg): 20 | prolonging days ([8]; 25 mg/kg): 7 days | rate of prolonging (%) ([8]; 25 mg/kg): 47% | duration of survival (Ave) ([8]; 25 mg/kg): 22 | prolonging days ([8]; 50 mg/kg): 13 days | rate of prolonging (%) ([8]; 50 mg/kg): 87% | duration of survival (Ave) ([8]; 50 mg/kg): 28 | selectivity ratio at 36 h (Coxsakie B3 virus; African green monkey, Veo cells infected with Coxsakie B3 virus, Coxsakie B3 virus in Veo cells, read-out: SI (selective index, TC50/IC50)): 2.88 | IC50 (Coxsakie B3 virus; Coxsakie B3 virus in Veo cells, CPE after 36 hours, Reed-Muench): 8.56 µg/mL | TC50 (half toxic concentration) (Veo cells): 24.7 µg/mL | Gemicidal effect (killing rate) (T. rubrum; 12.5 μg/ml): 58% | Gemicidal effect (killing rate) (T. rubrum; 25 μg/ml): 80% | Gemicidal effect (killing rate) (T. rubrum; 50 μg/ml): 99% | Gemicidal effect (killing rate) (T. rubrum; 100 μg/ml): 100% | Gemicidal effect (killing rate) (T. mentagrophytes; 12.5 μg/ml): 60% | Gemicidal effect (killing rate) (T. mentagrophytes; 25 μg/ml): 82% | Gemicidal effect (killing rate) (T. mentagrophytes; 50 μg/ml): 99.5% | Gemicidal effect (killing rate) (T. mentagrophytes; 100 μg/ml): 100% | Gemicidal effect (killing rate) (C. albicans; 12.5 μg/ml): 50% | Gemicidal effect (killing rate) (C. albicans; 25 μg/ml): 75% | Gemicidal effect (killing rate) (C. albicans; 50 μg/ml): 99% | Gemicidal effect (killing rate) (C. albicans; 100 μg/ml): 99.5% | Gemicidal effect (killing rate) (B. subtilis; 12.5 μg/ml): 65% | Gemicidal effect (killing rate) (B. subtilis; 25 μg/ml): 85% | Gemicidal effect (killing rate) (B. subtilis; 50 μg/ml): 99% | Gemicidal effect (killing rate) (B. subtilis; 100 μg/ml): 100% | antifungal effects [9]: 99.9%

NC(=O)c1ncn([C@@H]2O[C@H](CO)[C@@H](O)[C@H]2O)n1 [RBV, Ribavirin, reference compound]
IC50 (Coxsakie B3 virus; 36 h): 448 µg/mL (≈ 1830 µM)
